Experimental data as given in US7320972B2, “4-Biarylyl-1-phenylazetidin-2-ones” (Microbia, Inc., priority 2003, dated 2008).

Test system: cholesterol absorption (serum 3H-cholesterol)
Test: In Vivo Assay of Hypolipidemic Agents using the Rat Cholesterol Absorption Model
Design: species or system Sprague-Dawley rats
Conditions: peroral, 1 mg/kg, serum 3H-cholesterol 3 h after cholesterol dose, vs vehicle control
How it was run: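 Female Sprague-Dawley rats (150–250 g, 4–6 per group) were fasted overnight and dosed orally with compound in olive oil or vehicle. Thirty minutes later they received 3–5 μCi 3H-cholesterol orally in olive oil, and serum radioactivity was measured at 3 h. % inhibition = 100×(1−Ctest/Cctrl) at a fixed dose; ED50 is the dose giving half-maximal effect.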

Point of comparison: O=C1[C@H](CC[C@H](O)c2ccc(F)cc2)[C@@H](c2ccc(-c3cccc(C[C@@H]4O[C@H](CO)[C@@H](O)[C@H](O)[C@H]4O)c3)cc2)N1c1ccc(F)cc1 [Example 117], “% inhibition at 1 mg/kg” value 26%. Against it:
- C[N+](C)(C)c1cccc(-c2ccc([C@@H]3[C@@H](CC[C@H](O)c4ccc(F)cc4)C(=O)N3c3ccc(F)cc3)cc2)c1 [Example 120, 4′-{(2S,3R)-1-(4-fluorophenyl)-3-[(3S)-3-(4-fluorophenyl)-3-hydroxypropyl]-4-oxoazetidin-2-yl}-N,N,N-trimethylbiphenyl-3-aminium] — lower, 23%

Same assay, conditions: peroral, 10 mg/kg (footnote 1), serum 3H-cholesterol vs vehicle control

In the case of O=C1[C@H](CC[C@H](O)c2ccc(F)cc2)[C@@H](c2ccc(-c3ccc(O)cc3)cc2)N1c1ccc(F)cc1 [Example 2, (3R,4S)-1-(4-fluorophenyl)-3-[(3S)-3-(4-fluorophenyl)-3-hydroxypropyl]-4-(4′-hydroxybiphenyl-4-yl)azetidin-2-one], the “% inhibition at 10 mg/kg” value is reported as 54^1%.
In the case of COc1ccc(-c2ccc([C@@H]3[C@@H](CC[C@H](O)c4ccc(F)cc4)C(=O)N3c3ccc(F)cc3)cc2)cc1 [Example 5, (3R,4S)-1-(4-fluorophenyl)-3-[(3S)-3-(4-fluorophenyl)-3-hydroxypropyl]-4-(4′-methoxybiphenyl-4-yl)azetidin-2-one], the “% inhibition at 10 mg/kg” value is reported as 26^1%.

Same assay, conditions: po, peroral, 1 mg/kg, serum 3H-cholesterol 3 h after cholesterol dose, vs vehicle control

Point of comparison: CC(C)Oc1cccc(-c2ccc([C@@H]3[C@@H](CC[C@H](O)c4ccc(F)cc4)C(=O)N3c3ccc(F)cc3)cc2)c1 [Example 105, (3R,4S)-1-(4-fluorophenyl)-3-[(3S)-3-(4-fluorophenyl)-3-hydroxypropyl]-4-(3′-isopropoxybiphenyl-4-yl)azetidin-2-one], inhibition in vivo at 1 mg/kg 15%. Against it:
- O=C1[C@H](CC[C@H](O)c2ccc(F)cc2)[C@@H](c2ccc(-c3cccc(O)c3)cc2)N1c1ccc(F)cc1 [Example 4, (3R,4S)-1-(4-Fluorophenyl)-3-[(3S)-3-(4-fluorophenyl)-3-hydroxypropyl]-4-(3′-hydroxybiphenyl-4-yl)azetidin-2-one] — higher, 72%
- O=C(O)c1cc(-c2ccc([C@@H]3[C@@H](CC[C@H](O)c4ccc(F)cc4)C(=O)N3c3ccc(F)cc3)cc2)ccc1O [Example 106, 4′-{(2S,3R)-1-(4-fluorophenyl)-3-[(3S)-3-(4-fluorophenyl)-3-hydroxypropyl]-4-oxoazetidin-2-yl}-4-hydroxybiphenyl-3-carboxylic Acid] — higher, 66%
- COc1cc(OC)cc(-c2ccc([C@@H]3[C@@H](CC[C@H](O)c4ccc(F)cc4)C(=O)N3c3ccc(F)cc3)cc2)c1 [Example 107, (3R,4S)-4-(3′,5′-dimethoxybiphenyl-4-yl)-1-(4-fluorophenyl)-3-[(3S)-3-(4-fluorophenyl)-3-hydroxypropyl]azetidin-2-one] — higher, 49%
- O=C1[C@H](CC[C@H](O)c2ccc(F)cc2)[C@@H](c2ccc(-c3ccc(O)cc3O)cc2)N1c1ccc(F)cc1 [Example 108, (3R,4S)-4-(2′,4′-dihydroxybiphenyl-4-yl)-1-(4-fluorophenyl)-3-[(3S)-3-(4-fluorophenyl)-3-hydroxypropyl]azetidin-2-one] — higher, 69%
- CCCCOc1cccc(-c2ccc([C@@H]3[C@@H](CC[C@H](O)c4ccc(F)cc4)C(=O)N3c3ccc(F)cc3)cc2)c1 [Example 109, (3R,4S)-4-(3′-butoxybiphenyl-4-yl)-1-(4-fluorophenyl)-3-[(3S)-3-(4-fluorophenyl)-3-hydroxypropyl]azetidin-2-one] — higher, 52%
- O=C(O)c1ccc(-c2ccc([C@@H]3[C@@H](CC[C@H](O)c4ccc(F)cc4)C(=O)N3c3ccc(F)cc3)cc2)cc1O [Example 110, 4′-{(2S,3R)-1-(4-fluorophenyl)-3-[(3S)-3-(4-fluorophenyl)-3-hydroxypropyl]-4-oxoazetidin-2-yl}-3-hydroxybiphenyl-4-carboxylic Acid] — higher, 72%
- COc1cc(F)cc(-c2ccc([C@@H]3[C@@H](CC[C@H](O)c4ccc(F)cc4)C(=O)N3c3ccc(F)cc3)cc2)c1 [Example 111, (3R,4S)-4-(3′-fluoro-5′-methoxybiphenyl-4-yl)-1-(4-fluorophenyl)-3-[(3S)-3-(4-fluorophenyl)-3-hydroxypropyl]azetidin-2-one] — higher, 72%
- O=C1[C@H](CC[C@H](O)c2ccc(F)cc2)[C@@H](c2ccc(-c3cc(O)cc(F)c3)cc2)N1c1ccc(F)cc1 [Example 112, (3R,4S)-4-(3′-fluoro-5′-hydroxybiphenyl-4-yl)-1-(4-fluorophenyl)-3-[(3S)-3-(4-fluorophenyl)-3-hydroxypropyl]azetidin-2-one] — higher, 75%
- O=C1[C@H](CC[C@H](O)c2ccc(F)cc2)[C@@H](c2ccc(-c3cccc([C@@H]4O[C@@H](CO)[C@H](O)[C@@H](O)[C@@H]4O)c3)cc2)N1c1ccc(F)cc1 [Example 113, (1S)-1,5-anhydro-1-(4′-{(2S,3R)-1-(4-fluorophenyl)-3-[(3S)-3-(4-fluorophenyl)-3-hydroxypropyl]-4-oxoazetidin-2-yl}biphenyl-3-yl)-L-glucitol] — higher, 67%
- O=C1[C@H](CC[C@H](O)c2ccc(F)cc2)[C@@H](c2ccc(-c3cc(O)cc(O)c3)cc2)N1c1ccc(F)cc1 [Example 114, (3R,4S)-4-(3′,5′-dihydroxybiphenyl-4-yl)-1-(4-fluorophenyl)-3-[(3S)-3-(4-fluorophenyl)-3-hydroxypropyl]azetidin-2-one] — higher, 72%
- O=C1[C@H](CC[C@H](O)c2ccc(F)cc2)[C@@H](c2ccc(-c3cccc(B(O)O)c3)cc2)N1c1ccc(F)cc1 [Example 115, (4′-{(2S,3R)-1-(4-fluorophenyl)-3-[(3S)-3-(4-fluorophenyl)-3-hydroxypropyl]-4-oxoazetidin-2-yl}biphenyl-3-yl)boronic Acid] — higher, 70%
- O=C1[C@H](CC[C@H](O)c2ccc(F)cc2)[C@@H](c2ccc(-c3ccc([C@H]4O[C@@H](CO)[C@H](O)[C@@H](O)[C@@H]4O)cc3)cc2)N1c1ccc(F)cc1 [Example 116, (1R)-1,5-anhydro-1-(4′-{(2S,3R)-1-(4-fluorophenyl)-3-[(3S)-3-(4-fluorophenyl)-3-hydroxypropyl]-4-oxoazetidin-2-yl}biphenyl-4-yl)-L-glucitol] — higher, 81%
- O=C1[C@H](CC[C@H](O)c2ccc(F)cc2)[C@@H](c2ccc(-c3cccc(S(=O)(=O)O)c3)cc2)N1c1ccc(F)cc1 [Example 118, 4′-{(2S,3R)-1-(4-fluorophenyl)-3-[(3S)-3-(4-fluorophenyl)-3-hydroxypropyl]-4-oxoazetidin-2-yl}biphenyl-3-sulfonic Acid] — higher, 61%
- O=C1[C@H](CC[C@H](O)c2ccc(F)cc2)[C@@H](c2ccc(-c3cccc(S)c3)cc2)N1c1ccc(F)cc1 [Example 119, (3R,4S)-1-(4-fluorophenyl)-3-[(3S)-3-(4-fluorophenyl)-3-hydroxypropyl]-4-(3′-mercaptobiphenyl-4-yl)azetidin-2-one] — higher, 56%
- O=C1[C@H](CC[C@H](O)c2ccc(F)cc2)[C@@H](c2ccc(-c3cccc(O)c3)cc2O)N1c1ccc(F)cc1 [Example 121, (3R,4S)-4-(3,3′-dihydroxybiphenyl-4-yl)-1-(4-fluorophenyl)-3-[(3S)-3-(4-fluorophenyl)-3-hydroxypropyl]azetidin-2-one] — higher, 72%
- O=C1[C@H](CC[C@H](O)c2ccc(F)cc2)[C@@H](c2ccc(-c3cccc(P(=O)(O)O)c3)cc2)N1c1ccccc1 [Example 122, (4′-{(2S,3R)-3-[(3S)-3-(4-fluorophenyl)-3-hydroxypropyl]-4-oxo-1-phenylazetidin-2-yl}biphenyl-3-yl)phosphonic Acid] — higher, 67%
- CS(=O)(=O)c1cccc(-c2ccc([C@@H]3[C@@H](CC[C@H](O)c4ccc(F)cc4)C(=O)N3c3ccccc3)c(O)c2)c1 [Example 123, (3R,4S)-3-[(3S)-3-(4-fluorophenyl)-3-hydroxypropyl]-4-[3-hydroxy-3′-(methylsulfonyl)biphenyl-4-yl]-1-phenylazetidin-2-one] — higher, 72%
- O=C1[C@H](CC[C@H](O)c2ccc(F)cc2)[C@@H](c2ccc(-c3cccc(O)c3)cc2)N1c1ccc(-c2ccccc2)cc1 [Example 124, (3R,4S)-1-biphenyl-4-yl-3-[(3S)-3-(4-fluorophenyl)-3-hydroxypropyl]-4-(3′-hydroxybiphenyl-4-yl)azetidin-2-one] — higher, 48%
- O=C1[C@H](CC[C@H](O)c2ccc(F)cc2)[C@@H](c2ccc(-c3ccc(O)cc3)cc2O)N1c1ccccc1 [Example 125, (3R,4S)-4-(3,4′-dihydroxybiphenyl-4-yl)-3-[(3S)-3-(4-fluorophenyl)-3-hydroxypropyl]-1-phenylazetidin-2-one] — higher, 64%
- O=C1[C@H](CC[C@H](O)c2ccc(F)cc2)[C@@H](c2ccc(-c3ccc(P(=O)(O)O)cc3)cc2O)N1c1ccccc1 [Example 127, (4′-{(2S,3R)-3-[(3S)-3-(4-Fluorophenyl)-3-hydroxypropyl]-4-oxo-1-phenylazetidin-2-yl}-3′-hydroxybiphenyl-4-yl)phosphonic Acid] — higher, 58%
- O=C1[C@H](CC[C@H](O)c2ccc(F)cc2)[C@@H](c2ccc(-c3ccc(S(=O)(=O)O)cc3)cc2O)N1c1ccccc1 [Example 128, Sodium 4′-{(2S,3R)-3-[(3S)-3-(4-fluorophenyl)-3-hydroxypropyl]-4-oxo-1-phenylazetidin-2-yl}-3′-hydroxybiphenyl-4-sulfonate] — higher, 60%

Test system: not given
Test: not given
Conditions: not given

Point of comparison: O=C1[C@H](CC[C@H](O)c2ccc(F)cc2)[C@@H](c2ccc(O)c(-c3ccccc3)c2)N1c1ccc(F)cc1 [Example 6, (3R,4S)-1-(4-fluorophenyl)-3-[(3S)-3-(4-fluorophenyl)-3-hydroxypropyl]-4-(6-hydroxybiphenyl-3-yl)azetidin-2-one], melting point 113 °C. Against it:
- O=C1[C@H](CC[C@H](O)c2ccc(F)cc2)[C@@H](c2ccc(-c3ccc(O)cc3)cc2)N1c1ccc(F)cc1 [Example 2, (3R,4S)-1-(4-fluorophenyl)-3-[(3S)-3-(4-fluorophenyl)-3-hydroxypropyl]-4-(4′-hydroxybiphenyl-4-yl)azetidin-2-one] — lower, 110 °C
- O=C1[C@H](CC[C@H](O)c2ccc(F)cc2)[C@@H](c2ccc(-c3cccc(O)c3)cc2)N1c1ccc(F)cc1 [Example 4, (3R,4S)-1-(4-Fluorophenyl)-3-[(3S)-3-(4-fluorophenyl)-3-hydroxypropyl]-4-(3′-hydroxybiphenyl-4-yl)azetidin-2-one] — lower, 107 °C
- COc1ccc(-c2ccc([C@@H]3[C@@H](CC[C@H](O)c4ccc(F)cc4)C(=O)N3c3ccc(F)cc3)cc2)cc1 [Example 5, (3R,4S)-1-(4-fluorophenyl)-3-[(3S)-3-(4-fluorophenyl)-3-hydroxypropyl]-4-(4′-methoxybiphenyl-4-yl)azetidin-2-one] — lower, 103 °C
